Assay results: the supplement of paper PMC11061612

Tests used:
Assay in all cases: Bliss excess, mean over the matrix (fraction); higher = more synergy
[1] = tested on: A2058 (Melanoma)
In short: (§1)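 Bliss excess equals the observed combination effect minus the expected value EA + EB − EA·EB, where EA and EB are the effects of each agent alone. Combination Emax is the second-highest inhibition within the matrix. Inhibition was scaled from CellTiter-Glo 2.0 luminescence, with 0 set by vehicle wells and 1 by blank wells, after 72 hours of two-drug dosing of cells plated in 1536-well plates.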

[2] = tested on: FADU (Head and Neck Carcinoma)
In short: as §1

[3] = tested on: GP5d (Colorectal Carcinoma)
In short: as §1

[4] = tested on: IST-MES1 (Mesothelioma)
In short: as §1

[5] = tested on: KE-37 (T-Lymphoblastic Leukemia)
In short: as §1

[6] = tested on: LK-2 (Squamous Cell Lung Carcinoma)
In short: as §1

[7] = tested on: LN-229 (Glioblastoma)
In short: as §1

[8] = tested on: MFE-280 (Endometrial Carcinoma)
In short: as §1

[9] = tested on: MKN45 (Gastric Carcinoma)
In short: as §1

[10] = tested on: NCI-H2342 (Lung Adenocarcinoma)
In short: as §1

[11] = tested on: NCI-H446 (Small Cell Lung Carcinoma)
In short: as §1

[12] = tested on: OAW-42 (Ovarian Carcinoma)
In short: as §1

[13] = tested on: PANC-03-27 (Pancreatic Carcinoma)
In short: as §1

[14] = tested on: PC-3_[JPC-3] (Lung Adenocarcinoma)
In short: as §1

[15] = tested on: RERF-LC-Sq1 (Squamous Cell Lung Carcinoma)
In short: as §1

[16] = tested on: SF268 (Low Grade Glioma)
In short: as §1

[17] = tested on: SF539 (Glioblastoma)
In short: as §1

[18] = tested on: SHP-77 (Small Cell Lung Carcinoma)
In short: as §1

[19] = tested on: SK-PN-DW (Other Solid Carcinomas)
In short: as §1

[20] = tested on: WM793B (Melanoma)
In short: as §1

| SMILES | Bliss excess [1] | Bliss excess [2] | Bliss excess [3] | Bliss excess [4] | Bliss excess [5] | Bliss excess [6] | Bliss excess [7] | Bliss excess [8] | Bliss excess [9] | Bliss excess [10] | Bliss excess [11] | Bliss excess [12] | Bliss excess [13] | Bliss excess [14] | Bliss excess [15] | Bliss excess [16] | Bliss excess [17] | Bliss excess [18] | Bliss excess [19] | Bliss excess [20] |
| --- | --- | --- | --- | --- | --- | --- | --- | --- | --- | --- | --- | --- | --- | --- | --- | --- | --- | --- | --- | --- |
| CN(CCO)CC[C@H](CSc1ccccc1)Nc1ccc(S(=O)(=O)NC(=O)c2ccc(N3CCC([C@@H](O)c4ccccc4-c4ccc(Cl)cc4)CC3)cc2)cc1S(=O)(=O)C(F)(F)F [AZD4320] + C[C@@H](Nc1cc(F)cc(F)c1)c1cc(C(=O)N(C)C)cc2c(=O)cc(N3CCOCC3)oc12 [AZD8186] (first compound max 1 µM, 7x7, partner max 3 µM) | 0.0157 | 0.041 | -0.0378 | 0.0552 | 0.0866 | -0.0056 | 0.0166 | 0.0097 | -0.0724 | -0.0065 | 0.0281 | 0.0688 | 0.0439 | -0.0176 | -0.0169 | 0.014 | 0.0425 | 0.0216 | -0.0087 | 0.0434 |
| CN(CCO)CC[C@H](CSc1ccccc1)Nc1ccc(S(=O)(=O)NC(=O)c2ccc(N3CCC([C@@H](O)c4ccccc4-c4ccc(Cl)cc4)CC3)cc2)cc1S(=O)(=O)C(F)(F)F [AZD4320] + Cc1cc2ncnn2cc1Nc1ncc2c(n1)n(C1CCOCC1)c(=O)n2C [AZD7648] (first compound max 1 µM, 7x7, partner max 10 µM) | -0.0231 | -0.016 | -0.052 | -0.042 | 0.0363 | -0.0075 | -0.0393 | -0.0471 | -0.0744 | -0.0475 | 0.0292 | -0.0118 | -0.061 | -0.0635 | -0.0418 | -0.0371 | 0.0095 | -0.0012 | -0.0411 | -0.0234 |
| COc1nnc2ccc(N3CCC(c4ccc(OCCN5CCN(C)C(=O)[C@H]5C)cc4)CC3)nn12 [AZD5153] + C=CCn1c(=O)c2cnc(Nc3ccc(N4CCN(C)CC4)cc3)nc2n1-c1cccc(C(C)(C)O)n1 [AZD1775] (first compound max 1 µM, partner max 1 µM) | -0.0175 | -0.0273 | -0.0279 | -0.0347 | 0.0096 | 0.0029 | -0.039 | -0.0779 | -0.105 | -0.0347 | -0.0553 | -0.0338 | -0.152 | -0.06 | -0.1 | 0.0037 | -0.0303 | 0.0194 | -0.0722 | -0.0265 |
| COc1nnc2ccc(N3CCC(c4ccc(OCCN5CCN(C)C(=O)[C@H]5C)cc4)CC3)nn12 [AZD5153] + CC1(C)CCC(CN2CCN(c3ccc(C(=O)NS(=O)(=O)c4ccc(NCC5CCOCC5)c([N+](=O)[O-])c4)c(Oc4cnc5[nH]ccc5c4)c3)CC2)=C(c2ccc(Cl)cc2)C1 [Venetoclax] (first compound max 1 µM, 7x7, partner max 1 µM) | -0.0876 | -0.0492 | -0.0741 | -0.0237 | -0.0133 | -0.0015 | -0.0496 | -0.0138 | -0.0389 | -0.0384 | 0.0507 | -0.0201 | -0.0422 | -0.111 | -0.0246 | -0.128 | -0.0797 | 0.0049 | -0.0998 | -0.0525 |
| COc1nnc2ccc(N3CCC(c4ccc(OCCN5CCN(C)C(=O)[C@H]5C)cc4)CC3)nn12 [AZD5153] + CCN(CCO)CCCOc1ccc2c(Nc3cc(CC(=O)Nc4cccc(F)c4)[nH]n3)ncnc2c1 [AZD2811] (first compound max 1 µM, 7x7, partner max 1 µM) | 0.0568 | -0.0529 | -0.082 | -0.0132 | -0.0085 | -0.282 | 0.0112 | -0.0343 | -0.01 | -0.01 | -0.0481 | -0.0491 | -0.0487 | -0.0306 | 0.0063 | -0.0592 | -0.0184 | -0.0325 | -0.0677 | -0.0567 |
| COc1nnc2ccc(N3CCC(c4ccc(OCCN5CCN(C)C(=O)[C@H]5C)cc4)CC3)nn12 [AZD5153] + C[C@@H]1COCCN1C2=NC(=NC(=C2)C3(CC3)[S@](=N)(=O)C)C4=C5C=CNC5=NC=C4 [AZD6738] (first compound max 1 µM, 7x7, partner max 10 µM) | 0.0671 | 0.0155 | -0.0421 | -0.0183 | 0.0286 | 0.0491 | 0.0224 | -0.0103 | -0.0649 | 0.0133 | 0.0153 | 0.0752 | -0.091 | 0.0651 | 0.0033 | 0.0311 | 0.0418 | 0.0591 | -0.0638 | -0.0158 |
| COc1nnc2ccc(N3CCC(c4ccc(OCCN5CCN(C)C(=O)[C@H]5C)cc4)CC3)nn12 [AZD5153] + Cc1c2c(nn1C)CSCc1cc(n(C)n1)CSc1cc(c3ccccc3c1)OCCCc1c(C(=O)O)n(C)c3c-2c(Cl)ccc13 [AZD5991] (first compound max 1 µM, 7x7, partner max 1 µM) | 0.067 | -0.0366 | -0.0569 | -0.0031 | 0.116 | 0.0184 | 0.0175 | -0.0473 | -0.0635 | 0.0192 | 0.0153 | 0.0444 | -0.0183 | -0.0149 | -0.0393 | 0.0097 | -0.0273 | 0.0387 | 0.0472 | -0.0303 |
| COc1nnc2ccc(N3CCC(c4ccc(OCCN5CCN(C)C(=O)[C@H]5C)cc4)CC3)nn12 [AZD5153] + Cn1cnc2c(F)c(Nc3ccc(Br)cc3Cl)c(C(=O)NOCCO)cc21 [Selumetinib] (first compound max 1 µM, 7x7, partner max 10 µM) | 0.0358 | -0.015 | -0.0805 | 0.0054 | -0.0459 | 0.0918 | -0.0426 | 0.0114 | -0.0237 | 0.0267 | 0.033 | 0.02 | 0.0131 | 0.0189 | 0.102 | -0.0504 | -0.0255 | -0.134 | -0.0326 | -0.074 |
| Cc1c2c(nn1C)CSCc1cc(n(C)n1)CSc1cc(c3ccccc3c1)OCCCc1c(C(=O)O)n(C)c3c-2c(Cl)ccc13 [AZD5991] + C1CN(CCC1(C(=O)N[C@@H](CCO)C2=CC=C(C=C2)Cl)N)C3=NC=NC4=C3C=CN4 [Capivasertib] (first compound max 1 µM, 7x7, partner max 3 µM) | 0.0972 | 0.0213 | -0.0493 | -0.0195 | -0.0409 | -0.0103 | 0.0178 | 0.027 | -0.0262 | 0.0351 | 0.0419 | 0.0312 | 0.002 | -0.0062 | 0.0125 | -0.008 | -0.0043 | -0.0033 | 0.032 | 0.0045 |
| Cc1c2c(nn1C)CSCc1cc(n(C)n1)CSc1cc(c3ccccc3c1)OCCCc1c(C(=O)O)n(C)c3c-2c(Cl)ccc13 [AZD5991] + C=CCn1c(=O)c2cnc(Nc3ccc(N4CCN(C)CC4)cc3)nc2n1-c1cccc(C(C)(C)O)n1 [AZD1775] (first compound max 1 µM, partner max 1 µM) | 0.0959 | -0.0016 | -0.0133 | 0.0383 | 0.0334 | -0.0217 | 0.0754 | 0.0045 | -0.0456 | -0.0144 | -0.0162 | 0.0001 | 0.0186 | 0.005 | 0.0112 | 0.0045 | -0.0239 | -0.0378 | -0.0212 | 0.0054 |
| Cc1c2c(nn1C)CSCc1cc(n(C)n1)CSc1cc(c3ccccc3c1)OCCCc1c(C(=O)O)n(C)c3c-2c(Cl)ccc13 [AZD5991] + CC1(C)CCC(CN2CCN(c3ccc(C(=O)NS(=O)(=O)c4ccc(NCC5CCOCC5)c([N+](=O)[O-])c4)c(Oc4cnc5[nH]ccc5c4)c3)CC2)=C(c2ccc(Cl)cc2)C1 [Venetoclax] (first compound max 1 µM, 7x7, partner max 1 µM) | 0.0967 | -0.0231 | -0.0134 | -0.0239 | 0.0273 | 0.0293 | -0.0271 | -0.0225 | -0.0206 | -0.0599 | 0.117 | 0.0028 | -0.0397 | -0.0503 | -0.0191 | -0.0096 | 0.0187 | 0.0977 | 0.0206 | -0.0016 |
| Cc1c2c(nn1C)CSCc1cc(n(C)n1)CSc1cc(c3ccccc3c1)OCCCc1c(C(=O)O)n(C)c3c-2c(Cl)ccc13 [AZD5991] + CN(C)CCCOc1ccc(-c2ccc3ncc4c(c3c2)n(C2CCOCC2)c(=O)n4C)cn1 [AZD0156] (first compound max 1 µM, 7x7, partner max 1 µM) | -0.0048 | 0.0409 | -0.0201 | 0.0029 | 0.0257 | 0.0039 | 0.0024 | -0.0159 | -0.0594 | -0.016 | 0.052 | 0.0454 | -0.0201 | -0.0156 | 0.0372 | 0.0324 | -0.0184 | -0.0033 | -0.0117 | -0.0312 |
| Cc1c2c(nn1C)CSCc1cc(n(C)n1)CSc1cc(c3ccccc3c1)OCCCc1c(C(=O)O)n(C)c3c-2c(Cl)ccc13 [AZD5991] + C[C@@H](Nc1cc(F)cc(F)c1)c1cc(C(=O)N(C)C)cc2c(=O)cc(N3CCOCC3)oc12 [AZD8186] (first compound max 1 µM, 7x7, partner max 3 µM) | 0.119 | 0.0315 | -0.0645 | -0.0524 | -0.0459 | 0.0056 | -0.0063 | 0.0185 | -0.0777 | -0.0027 | 0.183 | 0.0262 | -0.0432 | 0.0031 | -0.0353 | -0.0095 | -0.0052 | -0.0379 | 0.0126 | 0.0512 |
| Cc1c2c(nn1C)CSCc1cc(n(C)n1)CSc1cc(c3ccccc3c1)OCCCc1c(C(=O)O)n(C)c3c-2c(Cl)ccc13 [AZD5991] + Cn1cnc2c(F)c(Nc3ccc(Br)cc3Cl)c(C(=O)NOCCO)cc21 [Selumetinib] (first compound max 1 µM, 7x7, partner max 3 µM) | 0.213 | 0.0722 | 0.0017 | -0.0466 | 0.0278 | -0.0063 | 0.0485 | 0.0226 | -0.0643 | -0.0673 | 0.0241 | 0.0218 | -0.0414 | -0.0477 | 0.0048 | -0.0199 | -0.0344 | 0.0623 | -0.0271 | -0.0053 |
